Each structure is given as a SMILES string.

The target in the assay is PDE 5 (Homo sapiens, UniProt O76074). Kind of assay: PDE 5 enzyme inhibition (PDE 5 IC50). Type of assay: biochemical.

With `Cn1c(=O)c2c(nc(NC3CCCCC3)n2Cc2ccc(O)cc2)n(C)c1=O` [Compound 37], the IC50 fell in the range of 5 to 10 nM.

In turn, `COc1ccc(Cn2c(NC3CC4CCC3C4)nc3c2c(=O)n(C)c(=O)n3C)cc1` (stereo not drawn) [Compound 77] displayed a half-maximal inhibitory concentration (IC50) of 15 to 100 nM. To `CCn1c(=O)c2c(nc(NC3CCCC3)n2Cc2ccc(O)cc2)n(C)c1=O` [Compound 79] belongs 5 to 10 nM; to `CCn1c(=O)c2c(nc(NC3CCCCC3)n2Cc2ccc(OC)cc2)n(CCO)c1=O` [Compound 103], at most 5 nM. As to `CCn1c(=O)c2c(nc(NC3CCCCC3)n2Cc2ccc(O)cc2)n(CCO)c1=O` [Compound 104], the 50% inhibitory concentration (IC50) is at most 5 nM. To `CCn1c(=O)c2c(nc(NC3CCCCC3)n2Cc2ccc(OC)c(Cl)c2)n(CCO)c1=O` [Compound 105] belongs at most 5 nM. `CCn1c(=O)c2c(nc(N[C@@H]3CCC[C@H]3O)n2Cc2ccc(OC)c(Cl)c2)n(CCO)c1=O` [Compound 106]: the concentration for half-maximal inhibition (IC50) was at most 5 nM. As for `CCn1c(=O)c2c(nc(NC3CCCCC3)n2Cc2ccc(O)c(Cl)c2)n(CCO)c1=O` [Compound 107], the IC50 was at most 5 nM. `CCn1c(=O)c2c(nc(NC3CCCCC3)n2Cc2ccc(O)c(Br)c2)n(CCO)c1=O` [Compound 116] yielded an IC50 of at most 5 nM.

Turning to `CCn1c(=O)c2c(nc(NC3CCCCC3)n2Cc2ccc(OC)c(Br)c2)n(CCO)c1=O` [Compound 117], the concentration for half-maximal inhibition (IC50) was at most 5 nM. With `CCn1c(=O)c2c(nc(N[C@@H]3CCC[C@H]3O)n2Cc2ccc(O)c(Br)c2)n(CCO)c1=O` [Compound 118] the figure was at most 5 nM; with `CCn1c(=O)c2c(nc(NC3CCCCC3)n2Cc2ccc(S(N)(=O)=O)cc2)n(CC)c1=O` [Compound 119], at most 5 nM. For the compound `CCn1c(=O)c2c(nc(NC3CCCCC3)n2Cc2ccc(OC)c(Br)c2)n(CC)c1=O` [Compound 122], the IC50 was at most 5 nM.

`CCn1c(=O)c2c(nc(N[C@@H]3CCC[C@H]3O)n2Cc2ccc(OC)c(Br)c2)n(CC)c1=O` [Compound 123]: the IC50 was at most 5 nM.

For `CCn1c(=O)c2c(nc(N[C@@H]3CCCC[C@@H]3O)n2Cc2ccc(OC)c(Br)c2)n(CC)c1=O` [Compound 124], the concentration for half-maximal inhibition (IC50) is at most 5 nM. Turning to `Cn1c(=O)c2c(nc(NC3CCCCC3)n2Cc2cccc(O)c2)n(C)c1=O` [Compound 146], the IC50 is 15 to 100 nM.

As to `Cc1cc(Cn2c(NC3CCCCC3)nc3c2c(=O)n(C)c(=O)n3C)ccc1O` [Compound 147], the concentration for half-maximal inhibition (IC50) was in the range of 15 to 100 nM. `Cn1c(=O)c2c(nc(NC3CCCCC3)n2Cc2ccccc2Cl)n(C)c1=O` [Compound 148] showed an IC50 of 15 to 100 nM. For `CCn1c(=O)c2c(nc(NC3CCCCC3)n2Cc2ccc3c(c2)OCO3)n(CC)c1=O` [Compound 168], the IC50 was at most 5 nM. To `CCn1c(=O)c2c(nc(NC3CCCCC3)n2Cc2ccc(O)c(C)c2)n(CC)c1=O` [Compound 169] belongs at most 5 nM; to `CCn1c(=O)c2c(nc(NC3CCCCC3)n2Cc2cccc(O)c2)n(CC)c1=O` [Compound 170], at most 5 nM; to `CCn1c(=O)c2c(nc(NC3CCOCC3)n2Cc2ccc(OC)c(Br)c2)n(CCO)c1=O` [Compound 186], at most 5 nM. With `CCN(CC)CCn1c(=O)n(CC)c(=O)c2c1nc(NC1CCCCC1)n2Cc1ccc(OC)c(Br)c1` [Compound 187] the figure was at most 5 nM; with `CCn1c(=O)c2c(nc(NC3CCOCC3)n2Cc2ccc(S(N)(=O)=O)cc2)n(CC)c1=O` [Compound 188], at most 5 nM.

The term IC50 denotes the concentration that gives 50% inhibition. A higher IC50 goes with weaker potency in that assay.
